Experimental findings from patent US11291659B2, “P38 kinase inhibitors reduce DUX4 and downstream gene expression for the treatment of FSHD” (Fulcrum Therapeutics, Inc., priority 2017, dated 2022) are described below.

Holding throughout (format): cell-based, Human
Assay [1] has as its system MBD3L2 mRNA (DUX4 downstream gene). Put plainly: MBD3L2 mRNA expression by qPCR in FSHD myotubes. On the procedure: Cell Plating: Performed three days prior to treatment, 10000 cells were plated per well on gelatinized 96-well plates, or 100000 cells on gelatinized 6-well plates.
(§1) For ASO or compound treatments cells were plate into 100 μL of Promocell growth medium containing ASO or compounds at the described concentrations.
(§2) On day 0, change to differentiation media. Remove plates from the incubator and aspirate the growth medium, Wash once with PBS, 100 μL for 96-wells and 1 mL for a 6-well plate, Add 100 μL or 2 mL of differentiation medium per well, 96- or 6-well respectively. Add antisense oligonucleotides or drug at the desire concentration and put back in the incubator. Fusion should start within day 1-2. Incubate for 3-4 days.
(§3) Cells were removed from the incubator and media aspirated. Quickly lysed following one of the following protocols: For lysis in 96-well plates direct lysis and one-step RT-Preamp qPCR protocol described below. For each 96-well prepare a mix containing: 19.5 μL Roche Realtime Ready lysis buffer, 0.25 μL RNAse inhibitor, 0.25 μL DNAseI (from Thermo not the included one in the kit). 20 μL of the mix was added to each well, mix 5 times and incubated 5 minutes at RT or alternatively shaken vigorously for 15 minutes. Lysis was observed under the microscope. Samples were frozen −80° C. at least for 15 minutes,
(§4) For qPCR, dilute 1:10 and use 2 μL for a 10 μL 1-step RT-qPCR reaction. For detection of GAPDH, RPLP0, TBP, MYOG, FRG1, MYH3, ACTN2, etc.). Per 10 μL reaction: RNA (1:10 dilution lysate) 2 μL, Fast Advanced Taqman Master Mix (2×) 5 μL, RT enzyme mix (40×) 0.25 μL, Taqman probe set (20×) 0.5 μL, H2O 2.25 μL. The following reaction protocol was run on the QuantStudio 7: 48° C. for 15 min, 50° C. for 2 min, 95° C. for 30 sec, 40×, 95° C. for 5 sec, 60° C. for 30 sec, then plates were read as specified by the manufacturer (Thermo). For 1-step RT-Preamplification used for detection of DUX4 downstream genes, i.e. MBD3L2, ZSCAN4, LEUTX, TRIM43, KHDC1L. POL2RA-VIC was used as Endogenous control). Per 10 μL reaction: RNA (1:10 dilution lysate) 2.25 μL, Taqman Pre-Amp Master Mix (2×) 5 μL, RT enzyme mix (40×) 0.25 μL, Taqman probe set (0.2×)*2.5 μL, * Pooling the TaqMan Assays: equal volumes of each 20× TaqMan® Gene Expression Assay, up to 100 assays were combined. For example, to pool 50 TaqMan assays, 10 μL of each assay were combined in a microcentrifuge tube. The pooled TaqMan assays were diluted using 1×TE buffer so that each assay is at a final concentration of 0.2×. For the above example, add 500 μL of 1×TE buffer to the pooled TaqMan assays for a total final volume of 1 mL. The QuantStudio7 protocol was used 48° C. 15 min, 95° C. 10 min, 10 cycles: 95° C. 15 sec, 60° C. 4 min, 4° C. infinite. Samples were then diluted to 50 μL and continue with the qPCR step. Per 10 μL reaction: Preamp dilution 2 μL, Fast Advanced Taqman Master Mix (2×) 5 μL, Taqman probe set (20×) 0.5 μL, H2O 2.5 μL. When multiplexing the volume was adjusted to 10 μL total). The following program was run on the QuantStudio7: 50° C. for 2 min, 95° C. for 30 sec, 40×, 95° C. for 5 sec, 60° C. for 30 sec, plates were read as per the manufacturers specifications (Thermo).
(§5) After treatment, the control and treated cells were processed for realtime PCR quantification of MBD3L2 mRNA (DUX4 downstream gene) and myogenin (MYOG) mRNA (control) expression.
(Real-time PCR tracks product formation cycle by cycle.)

In assay [2] the test system is myogenin (MYOG) mRNA. Briefly: Myogenin (MYOG) mRNA expression by qPCR in FSHD myotubes (control gene). The procedure: as §1, §2, §3
as §4, with “For the above example, add 500 μL of 1×TE buffer to the pooled TaqMan assays for a total final volume of 1 mL. The QuantStudio7 protocol was used 48° C. 15 min, 95° C. 10 min, 10 cycles: 95° C. 15 sec, 60° C. 4 min, 4° C. infinite. Samples were then diluted to 50 μL and continue with the qPCR step. Per 10 μL reaction: Preamp dilution 2 μL, Fast Advanced Taqman Master Mix (2×) 5 μL, Taqman probe set (20×) 0.5 μL, H2O 2.5 μL. When multiplexing the volume was adjusted to 10 μL total).” left out
as §5

The test system of assay [3] is active Caspase-3. Briefly: Apoptosis by active Caspase-3 in FSHD myotubes. The note with it: FSHD1 and FSHD2 lines; 1 μM. The procedure: Briefly, cells were fixed in 4% paraformaldehyde and […] for 10 min at room temperature. Cells were permeabilized with PBST (1×PBS solution with 0.1% Triton X-100) before blocking with 10% Normal Donkey Serum or 3% BSA (NDS) in PBST. Cells were then incubated with appropriately diluted primary antibodies in PBST with 5% NDS for 1 hours at room temperature or 12 hours at 4° C., washed with PBST for 3 times at room temperature and then incubated with desired secondary antibodies in TBST with 5% NDS and DAPI to counter stain the nuclei. DUX4 was detected by immunocytochemistry using the E5-5 antibody in differentiated FSHD myotubes. Activated Caspase-3 was detected cell signaling antibody that we're using for ICC, Asp175 (https://www.cellsignal.com/products/primary-antibodies/cleaved-caspase-3-asp175-antibody/9661).
Apoptosis was measured by active Caspase-3 levels in FSHD myotubes in vitro as described in Materials and Methods. Apoptosis was detected in a sporadic manner in a subset of myotubes in culture as shown by the white circles and magnified region in FIG. 9A. Active Caspase-3 signal was quantified in FSHD myotubes that had been treated with FTX-1821 at different concentrations (FIG. 9B). […] No change in active Caspase-3 signal was observed following DMSO treatment.

Turning to `Cn1c(=O)c(Oc2ccc(F)cc2F)cc2cnc(NC(CCO)CCO)nc21` [Pamapimod, 6-(2,4-difluorophenoxy)-2-((1,5-dihydroxypentan-3-yl)amino)-8-methylpyrido[2,3-d]pyrimidin-7(8H)-one], in assay [1] (FSHD1 and FSHD2 primary patient myoblast lines, 1 μM), the “MBD3L2 mRNA expression” value is “reduction of MBD3L2”. Besides, the “MBD3L2 downstream gene mRNA levels normalized to POLR2A mRNA” value in assay [1] (FSHD myotubes, 10, 100, and 1000 nM vs DMSO) is reported as “dose-dependently reduced”. In addition, the 50% inhibitory concentration (IC50) in assay [1] (Homo sapiens, Myotube, read-out: IC50, reduction of MBD3L2 mRNA expression, FSHD myotubes, realtime PCR) was < 10 nM. Also, the MBD3L2 expression levels result in assay [1] (myotubes of four FSHD patient lines FTCE-016, -020, -197, -196, 1 μM) was “reduced in all of the FSHD lines”. The “MYOG mRNA expression” value in assay [2] is on record as “no impact”. The “apoptosis (active caspase-3)” value in assay [3] is “reduction in apoptosis”.

By IC50 is commonly meant the midpoint of a concentration-inhibition curve.
